Results from PubChem BioAssay AID2060625 (Molecular Pharmacology Branch, DTP, NCI, 2025).

Tested on: 186277-243-T-J2-PDC spheroids with HUVEC/MSC, viability
Assay: Anticancer human tumor 186277-243-T-J2-PDC patient-derived colon adenocarcinoma cell line growth inhibition [CLK]
Details: second compound 10 µM; first compound 0.0316 µM; hits give low values
Procedure, shortened: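 Patient-derived tumor cells grown as complex spheroids with HUVEC endothelial cells and mesenchymal stem cells, treated with drug combinations. Concentrations descend in half-log steps from near clinical Cmax, or from 10 microM if Cmax unknown.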
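Note: compound exposure lasted seven days before readout; 100% = DMSO vehicle control wells.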

| Compound | viability, T/C |
| --- | --- |
| Nc1ccn(C2OC(CO)C(O)C2(F)F)c(=O)n1 (stereo unspecified) + CNC(=O)c1ccc(Nc2nc(OC3CCCC3)c3c(-c4ccc5nc(C)oc5c4)c[nH]c3n2)c(OC)c1 | 9.98% |
| O=c1[nH]cc(F)c(=O)[nH]1 + CNC(=O)c1ccc(Nc2nc(OC3CCCC3)c3c(-c4ccc5nc(C)oc5c4)c[nH]c3n2)c(OC)c1 | 30.1% |
| Nc1ccccc1NC(=O)c1ccc(CNC(=O)OCc2cccnc2)cc1 + CNC(=O)c1ccc(Nc2nc(OC3CCCC3)c3c(-c4ccc5nc(C)oc5c4)c[nH]c3n2)c(OC)c1 | 38.3% |
| Cn1ncnc1[C@H]1c2n[nH]c(=O)c3cc(F)cc(c23)N[C@@H]1c1ccc(F)cc1 + CN1CCN(c2cc(C(=O)Nc3cc4cc(-c5cnn(C)c5)ccc4cn3)ccn2)CC1 | 0.53% |
| CC(Nc1ccc2c(c1)OCCn1cc(N3C(=O)OCC3C(F)F)nc1-2)C(N)=O (stereo unspecified) + CNC(=O)c1ccc(Nc2nc(OC3CCCC3)c3c(-c4ccc5nc(C)oc5c4)c[nH]c3n2)c(OC)c1 | 24.5% |

Same assay, conditions: second compound 10 µM; first compound 0.1 µM; hits give low values

| Compound | viability, T/C |
| --- | --- |
| Nc1ccn(C2OC(CO)C(O)C2(F)F)c(=O)n1 (stereo unspecified) + CNC(=O)c1ccc(Nc2nc(OC3CCCC3)c3c(-c4ccc5nc(C)oc5c4)c[nH]c3n2)c(OC)c1 | 9.04% |
| O=c1[nH]cc(F)c(=O)[nH]1 + CNC(=O)c1ccc(Nc2nc(OC3CCCC3)c3c(-c4ccc5nc(C)oc5c4)c[nH]c3n2)c(OC)c1 | 30.3% |
| Nc1ccccc1NC(=O)c1ccc(CNC(=O)OCc2cccnc2)cc1 + CNC(=O)c1ccc(Nc2nc(OC3CCCC3)c3c(-c4ccc5nc(C)oc5c4)c[nH]c3n2)c(OC)c1 | 32.1% |
| Cn1ncnc1[C@H]1c2n[nH]c(=O)c3cc(F)cc(c23)N[C@@H]1c1ccc(F)cc1 + CN1CCN(c2cc(C(=O)Nc3cc4cc(-c5cnn(C)c5)ccc4cn3)ccn2)CC1 | 0.46% |
| CC(Nc1ccc2c(c1)OCCn1cc(N3C(=O)OCC3C(F)F)nc1-2)C(N)=O (stereo unspecified) + CNC(=O)c1ccc(Nc2nc(OC3CCCC3)c3c(-c4ccc5nc(C)oc5c4)c[nH]c3n2)c(OC)c1 | 19.6% |

Same assay, conditions: second compound 10 µM; first compound 0.316 µM; hits give low values

| Compound | viability, T/C |
| --- | --- |
| Nc1ccn(C2OC(CO)C(O)C2(F)F)c(=O)n1 (stereo unspecified) + CNC(=O)c1ccc(Nc2nc(OC3CCCC3)c3c(-c4ccc5nc(C)oc5c4)c[nH]c3n2)c(OC)c1 | 6.83% |
| O=c1[nH]cc(F)c(=O)[nH]1 + CNC(=O)c1ccc(Nc2nc(OC3CCCC3)c3c(-c4ccc5nc(C)oc5c4)c[nH]c3n2)c(OC)c1 | 29.4% |
| Nc1ccccc1NC(=O)c1ccc(CNC(=O)OCc2cccnc2)cc1 + CNC(=O)c1ccc(Nc2nc(OC3CCCC3)c3c(-c4ccc5nc(C)oc5c4)c[nH]c3n2)c(OC)c1 | 35.7% |
| CC(Nc1ccc2c(c1)OCCn1cc(N3C(=O)OCC3C(F)F)nc1-2)C(N)=O (stereo unspecified) + CNC(=O)c1ccc(Nc2nc(OC3CCCC3)c3c(-c4ccc5nc(C)oc5c4)c[nH]c3n2)c(OC)c1 | 10.9% |

Same assay, conditions: second compound 10 µM; first compound 1 µM; hits give low values

| Compound | viability, T/C |
| --- | --- |
| Nc1ccn(C2OC(CO)C(O)C2(F)F)c(=O)n1 (stereo unspecified) + CNC(=O)c1ccc(Nc2nc(OC3CCCC3)c3c(-c4ccc5nc(C)oc5c4)c[nH]c3n2)c(OC)c1 | 7.74% |
| O=c1[nH]cc(F)c(=O)[nH]1 + CNC(=O)c1ccc(Nc2nc(OC3CCCC3)c3c(-c4ccc5nc(C)oc5c4)c[nH]c3n2)c(OC)c1 | 29.2% |
| Nc1ccccc1NC(=O)c1ccc(CNC(=O)OCc2cccnc2)cc1 + CNC(=O)c1ccc(Nc2nc(OC3CCCC3)c3c(-c4ccc5nc(C)oc5c4)c[nH]c3n2)c(OC)c1 | 35.3% |
| CC(Nc1ccc2c(c1)OCCn1cc(N3C(=O)OCC3C(F)F)nc1-2)C(N)=O (stereo unspecified) + CNC(=O)c1ccc(Nc2nc(OC3CCCC3)c3c(-c4ccc5nc(C)oc5c4)c[nH]c3n2)c(OC)c1 | 9.69% |

Same assay, conditions: second compound 10 µM; first compound 3.16 µM; hits give low values

| Compound | viability, T/C |
| --- | --- |
| Nc1ccn(C2OC(CO)C(O)C2(F)F)c(=O)n1 (stereo unspecified) + CNC(=O)c1ccc(Nc2nc(OC3CCCC3)c3c(-c4ccc5nc(C)oc5c4)c[nH]c3n2)c(OC)c1 | 6.77% |
| O=c1[nH]cc(F)c(=O)[nH]1 + CNC(=O)c1ccc(Nc2nc(OC3CCCC3)c3c(-c4ccc5nc(C)oc5c4)c[nH]c3n2)c(OC)c1 | 27.6% |
| Nc1ccccc1NC(=O)c1ccc(CNC(=O)OCc2cccnc2)cc1 + CNC(=O)c1ccc(Nc2nc(OC3CCCC3)c3c(-c4ccc5nc(C)oc5c4)c[nH]c3n2)c(OC)c1 | 10.1% |
| CC(Nc1ccc2c(c1)OCCn1cc(N3C(=O)OCC3C(F)F)nc1-2)C(N)=O (stereo unspecified) + CNC(=O)c1ccc(Nc2nc(OC3CCCC3)c3c(-c4ccc5nc(C)oc5c4)c[nH]c3n2)c(OC)c1 | 6.97% |

Same assay, conditions: second compound 10 µM; first compound 10 µM; hits give low values

| Compound | viability, T/C |
| --- | --- |
| Nc1ccn(C2OC(CO)C(O)C2(F)F)c(=O)n1 (stereo unspecified) + CNC(=O)c1ccc(Nc2nc(OC3CCCC3)c3c(-c4ccc5nc(C)oc5c4)c[nH]c3n2)c(OC)c1 | 5.84% |
| O=c1[nH]cc(F)c(=O)[nH]1 + CNC(=O)c1ccc(Nc2nc(OC3CCCC3)c3c(-c4ccc5nc(C)oc5c4)c[nH]c3n2)c(OC)c1 | 12% |
| Nc1ccccc1NC(=O)c1ccc(CNC(=O)OCc2cccnc2)cc1 + CNC(=O)c1ccc(Nc2nc(OC3CCCC3)c3c(-c4ccc5nc(C)oc5c4)c[nH]c3n2)c(OC)c1 | 0.98% |
| CC(Nc1ccc2c(c1)OCCn1cc(N3C(=O)OCC3C(F)F)nc1-2)C(N)=O (stereo unspecified) + CNC(=O)c1ccc(Nc2nc(OC3CCCC3)c3c(-c4ccc5nc(C)oc5c4)c[nH]c3n2)c(OC)c1 | 4.12% |
